Residues, ends and D or L forms follow the SMILES beside them.
Molecular target: HLA-DR0901 protein (Homo sapiens, UniProt P01903+P01911, A100R/A103E/D57H/D86V/F55Y/F60I/F76Y/I96F/K127E/L162R/M171V/P40D/Q125H/Q99R/R33Q/R42F/S133A/S66N/T210M/V115G/W38K/Y107V/Y59G/Y89S)
Test: Peptide binding competition assay, DR0901

Q: With `CC[C@H](C)[C@H](NC(=O)[C@H](CCCCN)NC(=O)[C@H](CC(=O)O)NC(=O)[C@H](CC(C)C)NC(=O)[C@H](CO)NC(=O)[C@H](Cc1ccc(O)cc1)NC(=O)[C@H](CC(N)=O)NC(=O)[C@H](Cc1ccccc1)NC(=O)[C@H](CC(N)=O)NC(=O)[C@@H](N)CC(C)C)C(=O)N[C@@H](CC(C)C)C(=O)N[C@H](C(=O)N[C@@H](CC(=O)O)C(=O)O)C(C)C` [LNFNYSLDKILVD] (H-LNFNYSLDKILVD-OH) as the compound, how does the Kd read?
A: The Kd was 330 ± 68 nM.

Q: With `CC[C@H](C)[C@H](NC(=O)[C@H](CCCCN)NC(=O)[C@H](CC(=O)O)NC(=O)[C@H](CC(C)C)NC(=O)[C@H](CO)NC(=O)[C@H](Cc1ccc(O)cc1)NC(=O)[C@H](CC(N)=O)NC(=O)[C@H](Cc1ccccc1)NC(=O)[C@H](CC(N)=O)NC(=O)[C@@H](N)CC(C)C)C(=O)N[C@@H](CCSC)C(=O)N[C@H](C(=O)N[C@@H](CC(=O)O)C(=O)O)C(C)C` [LNFNYSLDKIMVD] (H-LNFNYSLDKIMVD-OH) as the compound, how does the Kd read?
A: Its Kd is 280 ± 61 nM.

Q: Which Kd does the source give for `CC[C@H](C)[C@H](NC(=O)[C@H](CCCCN)NC(=O)[C@H](CC(=O)O)NC(=O)[C@H](CC(C)C)NC(=O)[C@H](CO)NC(=O)[C@H](Cc1ccc(O)cc1)NC(=O)[C@H](CC(N)=O)NC(=O)[C@H](Cc1ccccc1)NC(=O)[C@H](CC(N)=O)NC(=O)[C@@H](N)CC(C)C)C(=O)N[C@@H](CC(N)=O)C(=O)N[C@H](C(=O)N[C@@H](CC(=O)O)C(=O)O)C(C)C` [LNFNYSLDKINVD] (H-LNFNYSLDKINVD-OH) here?
A: Its Kd is 2600 nM.

Q: With `CC[C@H](C)[C@H](NC(=O)[C@H](CCCCN)NC(=O)[C@H](CC(=O)O)NC(=O)[C@H](CC(C)C)NC(=O)[C@H](CO)NC(=O)[C@H](Cc1ccc(O)cc1)NC(=O)[C@H](CC(N)=O)NC(=O)[C@H](Cc1ccccc1)NC(=O)[C@H](CC(N)=O)NC(=O)[C@@H](N)CC(C)C)C(=O)N1CCC[C@H]1C(=O)N[C@H](C(=O)N[C@@H](CC(=O)O)C(=O)O)C(C)C` [LNFNYSLDKIPVD] (H-LNFNYSLDKIPVD-OH) as the compound, how does the Kd read?
A: The Kd was 1700 nM.

Q: How did the Kd turn out when `CC[C@H](C)[C@H](NC(=O)[C@H](CCCCN)NC(=O)[C@H](CC(=O)O)NC(=O)[C@H](CC(C)C)NC(=O)[C@H](CO)NC(=O)[C@H](Cc1ccc(O)cc1)NC(=O)[C@H](CC(N)=O)NC(=O)[C@H](Cc1ccccc1)NC(=O)[C@H](CC(N)=O)NC(=O)[C@@H](N)CC(C)C)C(=O)N[C@@H](CCCNC(=N)N)C(=O)N[C@H](C(=O)N[C@@H](CC(=O)O)C(=O)O)C(C)C` [LNFNYSLDKIRVD] (H-LNFNYSLDKIRVD-OH) was run?
A: Its Kd is 6700 nM.

Q: `CC[C@H](C)[C@H](NC(=O)[C@H](CCCCN)NC(=O)[C@H](CC(=O)O)NC(=O)[C@H](CC(C)C)NC(=O)[C@H](CO)NC(=O)[C@H](Cc1ccc(O)cc1)NC(=O)[C@H](CC(N)=O)NC(=O)[C@H](Cc1ccccc1)NC(=O)[C@H](CC(N)=O)NC(=O)[C@@H](N)CC(C)C)C(=O)N[C@@H](CO)C(=O)N[C@H](C(=O)N[C@@H](CC(=O)O)C(=O)O)C(C)C` [LNFNYSLDKISVD] (H-LNFNYSLDKISVD-OH) was tested. Which Kd did it give?
A: Its Kd is 770 ± 100 nM.

Q: For `CC[C@H](C)[C@H](NC(=O)[C@H](CCCCN)NC(=O)[C@H](CC(=O)O)NC(=O)[C@H](CC(C)C)NC(=O)[C@H](CO)NC(=O)[C@H](Cc1ccc(O)cc1)NC(=O)[C@H](CC(N)=O)NC(=O)[C@H](Cc1ccccc1)NC(=O)[C@H](CC(N)=O)NC(=O)[C@@H](N)CC(C)C)C(=O)N[C@@H](Cc1c[nH]c2ccccc12)C(=O)N[C@H](C(=O)N[C@@H](CC(=O)O)C(=O)O)C(C)C` [LNFNYSLDKIWVD] (H-LNFNYSLDKIWVD-OH), which Kd is on record?
A: The Kd was 530 ± 50 nM.

Q: With `CC[C@H](C)[C@H](NC(=O)[C@H](CCCCN)NC(=O)[C@H](CC(=O)O)NC(=O)[C@H](CC(C)C)NC(=O)[C@H](CO)NC(=O)[C@H](Cc1ccc(O)cc1)NC(=O)[C@H](CC(N)=O)NC(=O)[C@H](Cc1ccccc1)NC(=O)[C@H](CC(N)=O)NC(=O)[C@@H](N)CC(C)C)C(=O)N[C@@H](Cc1ccc(O)cc1)C(=O)N[C@H](C(=O)N[C@@H](CC(=O)O)C(=O)O)C(C)C` [LNFNYSLDKIYVD] (H-LNFNYSLDKIYVD-OH) as the compound, how does the Kd read?
A: The Kd was 240 ± 33 nM.

Q: `CC[C@H](C)[C@H](NC(=O)[C@H](CCSC)NC(=O)[C@H](CC(=O)O)NC(=O)[C@H](CC(C)C)NC(=O)[C@H](CO)NC(=O)[C@H](Cc1ccc(O)cc1)NC(=O)[C@H](CC(N)=O)NC(=O)[C@H](Cc1ccccc1)NC(=O)[C@H](CC(N)=O)NC(=O)[C@@H](N)CC(C)C)C(=O)N[C@H](C(=O)N[C@H](C(=O)N[C@@H](CC(=O)O)C(=O)O)C(C)C)[C@@H](C)CC` [LNFNYSLDMIIVD] (H-LNFNYSLDMIIVD-OH) was tested. Which Kd did it give?
A: The Kd was 24 ± 5 nM.

Q: `CC[C@H](C)[C@H](NC(=O)[C@H](CC(N)=O)NC(=O)[C@H](CC(=O)O)NC(=O)[C@H](CC(C)C)NC(=O)[C@H](CO)NC(=O)[C@H](Cc1ccc(O)cc1)NC(=O)[C@H](CC(N)=O)NC(=O)[C@H](Cc1ccccc1)NC(=O)[C@H](CC(N)=O)NC(=O)[C@@H](N)CC(C)C)C(=O)N[C@H](C(=O)N[C@H](C(=O)N[C@@H](CC(=O)O)C(=O)O)C(C)C)[C@@H](C)CC` [LNFNYSLDNIIVD] (H-LNFNYSLDNIIVD-OH) was tested. Which Kd did it give?
A: Its Kd is 27 ± 1 nM.

Q: For `CC[C@H](C)[C@H](NC(=O)[C@@H](NC(=O)[C@@H]1CCCN1C(=O)[C@H](CC(=O)O)NC(=O)[C@H](CC(C)C)NC(=O)[C@H](CO)NC(=O)[C@H](Cc1ccc(O)cc1)NC(=O)[C@H](CC(N)=O)NC(=O)[C@H](Cc1ccccc1)NC(=O)[C@H](CC(N)=O)NC(=O)[C@@H](N)CC(C)C)[C@@H](C)CC)C(=O)N[C@H](C(=O)N[C@@H](CC(=O)O)C(=O)O)C(C)C` [LNFNYSLDPIIVD] (H-LNFNYSLDPIIVD-OH), which Kd is on record?
A: The Kd was 36 ± 12 nM.

Q: Which Kd does the source give for `CC[C@H](C)[C@H](NC(=O)[C@H](CCCNC(=N)N)NC(=O)[C@H](CC(=O)O)NC(=O)[C@H](CC(C)C)NC(=O)[C@H](CO)NC(=O)[C@H](Cc1ccc(O)cc1)NC(=O)[C@H](CC(N)=O)NC(=O)[C@H](Cc1ccccc1)NC(=O)[C@H](CC(N)=O)NC(=O)[C@@H](N)CC(C)C)C(=O)N[C@H](C(=O)N[C@H](C(=O)N[C@@H](CC(=O)O)C(=O)O)C(C)C)[C@@H](C)CC` [LNFNYSLDRIIVD] (H-LNFNYSLDRIIVD-OH) here?
A: Its Kd is 53 ± 10 nM.

Q: Which Kd does the source give for `CC[C@H](C)[C@H](NC(=O)[C@H](CO)NC(=O)[C@H](CC(=O)O)NC(=O)[C@H](CC(C)C)NC(=O)[C@H](CO)NC(=O)[C@H](Cc1ccc(O)cc1)NC(=O)[C@H](CC(N)=O)NC(=O)[C@H](Cc1ccccc1)NC(=O)[C@H](CC(N)=O)NC(=O)[C@@H](N)CC(C)C)C(=O)N[C@H](C(=O)N[C@H](C(=O)N[C@@H](CC(=O)O)C(=O)O)C(C)C)[C@@H](C)CC` [LNFNYSLDSIIVD] (H-LNFNYSLDSIIVD-OH) here?
A: The Kd was 110 ± 45 nM.

Q: For `CC[C@H](C)[C@H](NC(=O)[C@H](Cc1ccc(O)cc1)NC(=O)[C@H](CC(=O)O)NC(=O)[C@H](CC(C)C)NC(=O)[C@H](CO)NC(=O)[C@H](Cc1ccc(O)cc1)NC(=O)[C@H](CC(N)=O)NC(=O)[C@H](Cc1ccccc1)NC(=O)[C@H](CC(N)=O)NC(=O)[C@@H](N)CC(C)C)C(=O)N[C@H](C(=O)N[C@H](C(=O)N[C@@H](CC(=O)O)C(=O)O)C(C)C)[C@@H](C)CC` [LNFNYSLDYIIVD] (H-LNFNYSLDYIIVD-OH), which Kd is on record?
A: Its Kd is 41 ± 10 nM.

Q: `CC[C@H](C)[C@H](NC(=O)[C@H](CCCCN)NC(=O)[C@H](Cc1c[nH]cn1)NC(=O)[C@H](CC(C)C)NC(=O)[C@H](CO)NC(=O)[C@H](Cc1ccc(O)cc1)NC(=O)[C@H](CC(N)=O)NC(=O)[C@H](Cc1ccccc1)NC(=O)[C@H](CC(N)=O)NC(=O)[C@@H](N)CC(C)C)C(=O)N[C@H](C(=O)N[C@H](C(=O)N[C@@H](CC(=O)O)C(=O)O)C(C)C)[C@@H](C)CC` [LNFNYSLHKIIVD] (H-LNFNYSLHKIIVD-OH) was tested. Which Kd did it give?
A: The Kd was 87 ± 8 nM.

From publication PMC4061985 (Journal of immunology (Baltimore, Md. : 1950), 2009)
